Results: EP0211584A1, “Antihypertensive agents” (AMERICAN HOME PRODUCTS CORPORATION, priority 1985, dated 1987)
Values belong to the compound of their own block, whether it stands above or below them.

Experiments:
[1] = tested on: rabbit aortic smooth muscle; test: Ca+2 antagonism: relaxation of KCl-depolarized rabbit aortic smooth muscle strips; details: Oryctolagus cuniculus, 20 min, compound 1 x 10^-5M; 100mM KCl contraction; 20 minutes after addition; mean of two experiments; read-out: P.R. (percent relaxation of aortic tissue)
Protocol: The composition of PSS was as follows (mM): NaCl 112,KCI 5, NaHCO3 25 KH2PO4 1, MgSO4 1.2, CaCl2 2.5, dextrose 10. The lower end of each tissue strip was attached to a fixed post and the upper end to a Statham UC-4 transducer. Changes in force development were recorded on a Beckman Dynograph Polygraphic Recorder.
Following equilibration, the muscles were contracted in a depolarizing solution of PSS in which 100mM KCI was substituted for an equimolar concentration of NaCI. Following attainment of steady- state isometric force (20 min.), the test compound was added to afford a final concentration of 1 x 10^-5M. The inhibitory effect, expressed as percent relaxation, was determined from the mean of two experiments twenty minutes after the addition of the compound being tested.
(§1) The following examples illustrate the preparation of a representative number of compounds of this invention. After each example, the Ca+2 antagonist activity of the compound is presented in terms of percent relaxation of aortic tissue (P.R.) at 10-^5M concentration. […] Inhibition of super- precipitation (Antag. of Actin-Myosin interaction) is expressed as percent inhibition (mean ± standard error of the mean for at least 3 separate experiments) at a compound concentration. In the same manner, inhibition of myosin light chain phosphorylation (Antag. of MLCP) is expressed as a percent inhibition at a compound concentration. Similarly, the antihypertensive activity is reported in terms of millimetres mercury (mmHg) systolic blood pressure (B.P.) reduction at the stated time post 50 mg/kg oral dosing or other dosing as indicated.

[2] = tested on: isolated paced intact rabbit atria; test: Cardiac depressant (negative inotropic) effect in isolated paced rabbit atria; details: Oryctolagus cuniculus; rabbit atria paced at 3Hz, 30°C, cumulative dosing; read-out: IC25 (concentration which produces 25% inhibition of isometric force)
Protocol: The potential for detrimental cardiac depressant (negative inotropic) effects of the compounds of this invention was assessed in isolated paced intact rabbit atria. […] Muscles (N=5-9/compound) were stimulated at a frequency of 3Hz with a WPI stimulator for a 60 minute equilibration period. Changes in isometric force were recorded as described for the aortic smooth muscle experiments, supra. […]

[3] = tested on: spontaneously hypertensive rats; test: Hypotensive effect: systolic blood pressure of spontaneously hypertensive rats; type: in vivo; details: mmHg per method
Protocol: The hypotensive in vivo effect of the compounds of this invention was determined by measuring changes in the systolic blood pressure of spontaneously hypertensive rats with a Decker Caudal Plethysmograph. The compound being tested was administered to a group of 4 rats and their systolic pressure was determined prior to and at 1.5 and 4 hours after compound administration. Initial testing was done by oral administration of the compound. Results (mmHg) are expressed as decreases in systolic blood pressure.
as §1

[4] = tested on: arterial actin-myosin interactions; test: Inhibition of superprecipitation (antagonism of actin-myosin interaction), Silver et al.; type: biochemical; details: six minute time-point
Protocol: . The data reported herein was obtained at a six minute time-point rather than the 1.5, 5 and 12 minute time points indicated in the superprecipita- tion assay of the Silver et al paper.
as §1

[5] = target: Ca^+2-calmodulin dependent myosin light chain phosphorylation (Bos taurus, UniProt Q28824); test: Inhibition of myosin light chain phosphorylation (MLCP), Silver et al.; type: biochemical; details: read-out: Antag. of MLCP (percent inhibition of myosin light chain phosphorylation)
Protocol: The data reported herein was obtained at a six minute time-point rather than the 1.5, 5 and 12 minute time points indicated in the superprecipita- tion assay of the Silver et al paper.
as §1

[6] = dose 10mg/kg oral, at 1.5 hours
[7] = dose 25mg/kg oral, at 1.5 hours
[8] = dose 50mg/kg oral, at 1.5 hours

inhibition at 25 µM [5]: 24 ± 3%
inhibition at 50 µM [5]: 54 ± 4%
inhibition at 100 µM [5]: 69 ± 3%
Structure (SMILES): CC1=C(C(=O)OCCOc2ccccc2)C(c2c(F)c(F)c(F)c(F)c2F)C2=C(CNCC2=O)N1 (racemic) [Example 2, 1,4,5,6,7,8-Hexahydro-2-methyl-5-oxo-4-(pentafluorophenyl)-1,7-naphthyridine-3-carboxylic acid 2-phenoxvethvl ester]
inhibition at 10 µM [1]: 71%
IC25 [2]: 1 µM
B.P. (systolic blood pressure reduction) [3, 6]: -39 mm
Antag. of Actin-Myosin (percent inhibition of superprecipitation) ([4]; 25µM): 28± 2%
Antag. of Actin-Myosin (percent inhibition of superprecipitation) ([4]; 50µM): 58± 4%

inhibition at 50 µM [5]: 57%
inhibition at 100 µM [5]: 70%
Structure (SMILES): CC1=C(C(=O)OCCOc2ccccc2)C(c2c(F)c(F)c(F)c(F)c2F)C2=C(CNCC2=O)N1 (single isomer, unassigned; (-)) [Example 3, (-)-1,4,5,6,7,8-Hexahydro-2-methyl-5-oxo-4-(pentafluorophenyl)-1,7-naphthridine-3-carboxylic acid 2-phenoxyethyl ester]
inhibition at 10 µM [1]: 56%
IC25 [2]: > 10 µM
B.P. (systolic blood pressure reduction) [3, 7]: -6 mm
B.P. (systolic blood pressure reduction) ([3]; dose 25mg/kg oral, at 4 hours): -14 mm
Antag. of Actin-Myosin (percent inhibition of superprecipitation) ([4]; 50µM): 65%
Antag. of Actin-Myosin (percent inhibition of superprecipitation) ([4]; 100µM): 76%

inhibition at 25 µM [5]: 38 ± 3%
inhibition at 50 µM [5]: 66%
inhibition at 100 µM [5]: 76 ± 2%
Structure (SMILES): COC(COC(=O)C1=C(C)NC2=C(C(=O)CNC2)C1c1cccc(Cl)c1Cl)c1ccccc1 (stereo not shown) [Example 1, 4-(2,3-Dichloroohenyl)-1,4,5,6,7,8-hexahydro-2-methyl-5-oxo-1,7-naphthyridine-3-carboxylic acid 2-methoxy-2-phenylethyl ester]
inhibition at 10 µM [1]: 32%
IC25 [2]: 10 µM
B.P. (systolic blood pressure reduction) [3, 8]: -53 mm
B.P. (systolic blood pressure reduction) ([3]; dose 50mg/kg oral, at 4 hours): -30 mm
Antag. of Actin-Myosin (percent inhibition of superprecipitation) ([4]; 25µM): 43± 2%
Antag. of Actin-Myosin (percent inhibition of superprecipitation) ([4]; 50µM): 75±3%
Antag. of Actin-Myosin (percent inhibition of superprecipitation) ([4]; 100µM): 83± 3%

inhibition at 25 µM [5]: 35 ± 5%
inhibition at 50 µM [5]: 62 ± 1%
inhibition at 100 µM [5]: 75 ± 3%
Structure (SMILES): COC(COC(=O)C1=C(C)NC2=C(C(=O)CNC2)C1c1cccc(Cl)c1C)c1ccccc1 (stereo not shown) [Example 10, 4-(3-chloro-2-methylphenyl)-1,4,5,6,7,8-hexahydro-2-methyl-5-oxo-1,7-naphthyridine-3-carboxylic acid 2-methoxy-2-phenylethyl ester]
inhibition at 10 µM [1]: 60%
IC25 [2]: > 10 µM
B.P. (systolic blood pressure reduction) [3, 6]: -28 mm
B.P. (systolic blood pressure reduction) ([3]; dose 10mg/kg oral, at 4 hours): -19 mm
Antag. of Actin-Myosin (percent inhibition of superprecipitation) ([4]; 25µM): 45±3%
Antag. of Actin-Myosin (percent inhibition of superprecipitation) ([4]; 50µM): 68±2%
Antag. of Actin-Myosin (percent inhibition of superprecipitation) ([4]; 100µM): 76±2%

inhibition at 10 µM ([5]; 10µM): 11%
inhibition at 25 µM [5]: 39 ± 2%
inhibition at 50 µM [5]: 59 ± 3%
inhibition at 100 µM [5]: 67 ± 2%
Structure (SMILES): CC1=C(C(=O)OCCOc2ccccc2)C(c2cccc(Cl)c2C)C2=C(CNCC2=O)N1 (stereo not shown) [Example 17, 4-(3-Chloro-2-methylphenyl)-1,4,5,6,7,8-hexahydro-2-methyl-5-oxo-1,7-naphthyridine-3-carboxylic acid 2-phenoxyethyl ester]
inhibition at 10 µM [1]: 74%
IC25 [2]: 1 µM
B.P. (systolic blood pressure reduction) [3, 7]: -10 mm
B.P. (systolic blood pressure reduction) ([3]; dose 25mg/kg oral, at 4 hours): -45 mm
Antag. of Actin-Myosin (percent inhibition of superprecipitation) ([4]; 10µM): 22%
Antag. of Actin-Myosin (percent inhibition of superprecipitation) ([4]; 25µM): 44±2%
Antag. of Actin-Myosin (percent inhibition of superprecipitation) ([4]; 50µM): 64±3%
Antag. of Actin-Myosin (percent inhibition of superprecipitation) ([4]; 100µM): 71±2%

Continued, compound first:

Structure (SMILES): CO[C@@H](COC(=O)C1=C(C)NC2=C(C(=O)CNC2)C1c1c(F)c(F)c(F)c(F)c1F)c1ccccc1 (stereo partly drawn) [Example 6, 1,4,5,6,7,8,-Hexahydro-2-methyl-5-oxo-4-(pentafluorophenyl)-1,7-naphthyridine-3-carboxylic acid (R)-2-methoxy-2-phenylethyl ester]
inhibition at 10 µM [1]: 71%
IC25 [2]: 0.6 µM
B.P. (systolic blood pressure reduction) [3, 6]: -56 mm
B.P. (systolic blood pressure reduction) ([3]; dose 10mg/kg oral, at 4 hours): -49 mm
Antag. of Actin-Myosin (percent inhibition of superprecipitation) ([4]; 50µM): 64%
Antag. of Actin-Myosin (percent inhibition of superprecipitation) ([4]; 100µM): 74%
inhibition at 50 µM [5]: 56%
inhibition at 100 µM [5]: 70%

Structure (SMILES): CO[C@H](COC(=O)C1=C(C)NC2=C(C(=O)CNC2)C1c1c(F)c(F)c(F)c(F)c1F)c1ccccc1 (stereo partly drawn) [Example 7, 1,4,5,6,7,8-Hexahydro-2-methyl-5-oxo-4-(pentafluorophenyl)-1,7-naphthyridine-3-carboxylic acid (S)-2-methoxy-2-ohenylethyl ester]
inhibition at 10 µM [1]: 68%
IC25 [2]: 65 µM
B.P. (systolic blood pressure reduction) [3, 6]: -51 mm
B.P. (systolic blood pressure reduction) ([3]; dose 10mg/kg oral, at 4 hours): -54 mm
Antag. of Actin-Myosin (percent inhibition of superprecipitation) ([4]; 50µM): 67%
Antag. of Actin-Myosin (percent inhibition of superprecipitation) ([4]; 100µM): 80%
inhibition at 50 µM [5]: 59%
inhibition at 100 µM [5]: 74%

Structure (SMILES): COC(COC(=O)C1=C(C)NC2=C(C(=O)CNC2)C1c1ccccc1C(F)(F)F)c1ccccc1 (stereo not shown) [Example 12, 1,4,5,6,7,8-Hexahydro-2-methyl-5-oxo-4-[2-(trifluoromethyl)phenyl]-1,7-naphthyridine-3-carboxylic acid 2-methoxv-2-ohenvlethvl ester]
inhibition at 10 µM [1]: 39%
IC25 [2]: 2 µM
B.P. (systolic blood pressure reduction) [3, 7]: -56 mm
B.P. (systolic blood pressure reduction) ([3]; dose 25mg/kg oral, at 4 hours): -56 mm
Antag. of Actin-Myosin (percent inhibition of superprecipitation) ([4]; 100µM): 30%
inhibition at 100 µM [5]: 24%

Structure (SMILES): CC1=C(C(=O)OC(C)COc2ccccc2)C(c2c(F)c(F)c(F)c(F)c2F)C2=C(CNCC2=O)N1 (stereo not shown) [Example 13, 1,4,5,6,7,8-Hexahydro-2-methyl-5-oxo-4-(pentafluorophenyl)-1,7-naphthylidine-3-carboxylic acid 1-methvl-2-ahenoxvethvl ester]
inhibition at 10 µM [1]: 46%
IC25 [2]: 10 µM
B.P. (systolic blood pressure reduction) [3, 8]: -35 mm
B.P. (systolic blood pressure reduction) ([3]; dose 50mg/kg oral, at 4 hours): -60 mm
Antag. of Actin-Myosin (percent inhibition of superprecipitation) ([4]; 25µM): 61%
Antag. of Actin-Myosin (percent inhibition of superprecipitation) ([4]; 100µM): 78%
inhibition at 25 µM [5]: 58%
inhibition at 100 µM [5]: 70%

Structure (SMILES): CC1=C(C(=O)OCC2COc3ccccc3O2)C(c2c(F)c(F)c(F)c(F)c2F)C2=C(CNCC2=O)N1 (stereo not shown) [Example 14, 1,4,5,6,7,8-Hexahydro-2-methyl-5-oxo-4-(pentafluorophenyl)-1,7-naphthyridine-3-carboxylic acid 2.3-dihvdro-1.4-benzodioxin-2-vimethvl ester]
inhibition at 10 µM [1]: 62%
IC25 [2]: 3.2 µM
B.P. (systolic blood pressure reduction) [3, 8]: -46 mm
B.P. (systolic blood pressure reduction) ([3]; dose 50mg/kg oral, at 4 hours): -42 mm
Antag. of Actin-Myosin (percent inhibition of superprecipitation) ([4]; 25µM): 65%
Antag. of Actin-Myosin (percent inhibition of superprecipitation) ([4]; 100µM): 80%
inhibition at 25 µM [5]: 59%
inhibition at 100 µM [5]: 76%

Structure (SMILES): CC1=C(C(=O)OCCOc2ccccc2)C(c2ccccc2C)C2=C(CNCC2=O)N1 (stereo not shown) [Example 15, 1,4,5,6,7,8-Hexahydro-2-methyl-4-(2-methylphenyl)-5-oxo-1,7-naphthyridine-3-carboxylic arid 2-phenoxyethyl ester]
inhibition at 10 µM [1]: 63%
IC25 [2]: 4.7 µM
B.P. (systolic blood pressure reduction) [3, 7]: -29 mm
B.P. (systolic blood pressure reduction) ([3]; dose 25mg/kg oral, at 4 hours): -39 mm
Antag. of Actin-Myosin (percent inhibition of superprecipitation) ([4]; 100µM): 66±5%
